Where two headings read alike, the source gives them in different places.
Columns and labels:
[1] = biological target: T1, Tet(X4) (Escherichia coli, UniProt A0A3T0V9Y5); assay: FP competitive displacement of probe 6; type: binding; settings: for IC50: 25 nM 6, 40 nM Tet(X4), 5 mM MgCl2, 1 μM FAD, 100 mM Tris pH 7.0, 0.01% Triton X-100; for displacement of probe 6 / competitive binding (in words): up to a maximum concentration of 100 μM
Experimental: A 2× solution containing 80 nM Tet(X4), 2 μM FAD and 10 mM MgCl2 in the assay buffer was dispensed into the first 22 columns of a 384-well black, non-binding microtiter plate (Greiner Bio-One), 12.5 μL per well, using a microplate reagent dispenser. A solution of 2 μM FAD and 10 mM MgCl2 in the assay buffer was dispensed into the remaining columns to serve as a no enzyme control. A 3-fold, 10-point dilution series of substrates and inhibitors was made in DMSO in a V-bottom 96-well plate (Greiner Bio-One) with a highest concentration of 5 mM or 0.5 mM. Into one column was added DMSO with no inhibitor or substrate, to serve as a positive control. Tigecycline was included as a reference on every plate to ensure reproducibility. 0.5 μL of each dilution was transferred in quadruplicate to the 384-well plate containing enzyme solution using a CyBi-Well liquid-handling robot (CyBio). A solution of 50 nM 6 in the assay buffer was then dispensed, with 12.5 μL per well. The plate was briefly centrifuged (1000 rpm), then incubated at ambient temperature for 30 min prior to measuring the FP. Data points were normalised between the positive and negative controls. Normalised % response was plotted as a function of log10([Inhibitor]), and the IC50^app was determined by fitting the data to the equation: Y = Bottom + (top-bottom)/(1 + 10^Log(IC50) − X) × HillSlope in GraphPad Prism 9.4.1, where Y = % response and X = log10([Inhibitor]). Wells with unusual fluorescence intensities were manually identified and removed from the analysis. […]

[2] = biological target: T1, Tet(X4); assay: Absorbance activity assay (tigecycline turnover, A400); type: biochemical; settings: for IC50: 25 μM tigecycline, 50 nM Tet(X4), 250 μM NADPH, 5 mM MgCl2, 1 μM FAD, 100 mM TAPS pH 8.5, read-out: IC50, Absorbance assay
Excerpt: We then tested the binding of reported type 1 TDase inhibitors to Tet(X4) (Fig. 3f, ESI Fig. S17 ^†).[33,38,39] […] These compounds gave similar apparent IC50^app values, in accord with trends in IC50 measurements performed by Markley et al.[33] […] We also developed a complementary endpoint activity assay where the turnover of tigecycline by Tet(X4) in a 96-well plate was quenched by addition of 1%v/v formic acid and analysed chromatographically. The peak integrals of tigecycline and its hydroxylated degradation product at 254 nm following UPLC analysis were measured to determine turnover (Fig. 5a). As this method separates components by chromatography, it enables IC50 measurements independent of potential interference from UV-active inhibitors (Fig. 5b). […] The apparent synergy of AZT with tetracyclines against whole cells expressing Tet(X4)[40] is therefore interesting and may derive from the proposed ability of AZT to interfere with DNA synthesis in bacteria,[40,53] or other unidentified mechanisms. […] Note, however, that plumbagin and 2-MNQ are naphthoquinones, which are well-characterised redox-active pan-assay interference (PAINS) moieties.[54]
233 Absorbance Activity Assays
234 A solution containing 100 mM TAPS (pH 8.5), 2 µM FAD, 10 mM MgCl2 and 100 nM Tet(X4) was
235 dispensed into a 384 well µClear plate (Greiner Bio-One), 25 µL per well, using a microplate reagent
236 dispenser. A 3-fold, 10-point dilution series of the substrates and inhibitors was made in DMSO with
237 the highest concentration of 50 mM, unless otherwise stated, and transferred to the enzyme solution in
238 technical quadruplicate using a CyBi-Well (CyBio) liquid-handling robot (1 µL per well). On each plate,
239 a column of no enzyme negative controls and no inhibitor (DMSO only) positive controls were
240 included. The plate was briefly centrifuged (1000 rpm), then incubated (ambient temperature,15 min).
241 A solution containing 100 mM TAPS (pH 8.5), 50 µM tigecycline and 500 µM NADPH was then
242 dispensed, with 25 µL per well. The plate was briefly centrifuged (1000 rpm), then transferred to a
243 CLARIOstar Plus Microplate reader. The absorbance was monitored at wavelength […] over the
244 course of 2 hours (23 flashes / cycle, 180 s cycle time, 41 data points, 25 ° C). The initial rate was
245 calculated by measuring the rate of change of A400 during the initial linear regime. Initial rates were
246 normalised between positive and negative controls. The normalised % response was plotted as a
247 function of log10([Inhibitor]) in molar units, and the IC50 was determined as above. […]

[3] = biological target: T1, Tet(X4); assay: biochemical; settings: for IC50: 20 μM tigecycline, 50 nM Tet(X4), 100 μM NADPH, 5 mM MgCl2, 1 μM FAD, 100 mM TAPS pH 8.5
Experimental: We then tested the binding of reported type 1 TDase inhibitors to Tet(X4) (Fig. 3f, ESI Fig. S17 ^†).[33,38,39] […] We also developed a complementary endpoint activity assay where the turnover of tigecycline by Tet(X4) in a 96-well plate was quenched by addition of 1%v/v formic acid and analysed chromatographically. The peak integrals of tigecycline and its hydroxylated degradation product at 254 nm following UPLC analysis were measured to determine turnover (Fig. 5a).
[…] A 3-fold, 10-point dilution series of the substrates and inhibitors was made in DMSO with a top concentration of 10 mM, unless otherwise stated, and transferred to the enzyme solution using a CyBi-Well liquid-handling robot (CyBio), 1 μL per well. On each plate, a column of no enzyme negative controls and no inhibitor (DMSO only) positive controls were included. The plate was incubated at 30 °C for 15 min. A solution containing 100 mM TAPS (pH 8.5), 40 μM tigecycline and 200 μM NADPH was then dispensed, with 49 μL per well. The plate was incubated at 30 °C for 20 min at 600 rpm. 10 μL of 10%v/v formic acid solution was then dispensed into all wells. Samples were analysed using an ACQUITY H-Class PLUS UPLC instrument (Waters) equipped with a pre-equilibrated ACQUITY BEH C18 column ([…], […], Waters) using a gradient of 1–50%v/v acetonitrile with 0.1%v/v formic acid in water with 0.1%v/v formic acid over 1.83 minutes at a flow rate of 0.5 mL min^−1. Instrument control and data processing were performed using MassLynx V4.1 software. The peaks representing tigecycline and 11a-hydroxy-tigecycline were integrated, used to calculate % conversion and then normalised between positive and negative controls. The normalised % response was plotted as a function of log10[Inhibitor], and the IC50 determined as described above.

[4] = system: E. coli TOP10 containing plasmid pBAD-TOPO-Tet(X4); assay: Broth microdilution MIC and checkerboard assay; type: cell-based, Escherichia coli; settings: for MIC: Escherichia coli; for Combination (antibiotic/inhibitor) MIC: inhibitor: inhibitor in combination with tigecycline; for Combination (antibiotic/inhibitor) MIC: inhibitor / Combination (antibiotic/inhibitor) MIC: antibiotic: lowest FICI; for Combination (antibiotic/inhibitor) MIC: antibiotic: tigecycline in combination with the inhibitor; for FICI / Outcome: with tigecycline
Excerpt: Tet(X4) was sub-cloned from the Tet(X4) pET28b-(+) expression vector via TOPO cloning. The insert was amplified using the taq polymerase with the forward primer 5′- […]-3′ and the reverse primer 5′- […]-3’. Following PCR purification (Thermo Fisher Scientific), the A-tailed PCR product was ligated into the pBAD-TOPO vector using a TOPO cloning kit (Invitrogen) according to the manufacturer's protocol. Following amplification in E. coli NEB5α cells (NEBiolabs), the fidelity of the insert was confirmed by Sanger sequencing (Eurofins). For microbiological experiments, E. coli TOP10 cells were used as the recipient strain. Cells were plated on Mueller-Hinton agar (MHA) plates containing ampicillin at 100 μg mL^−1. The introduction of pBAD-TOPO-Tet(X4) was confirmed by colony PCR. Strains were stored in a freezer at −80 °C in cryopreservation beads.
MIC tests and checkerboard assays were performed in U-bottom, 96-well microtiter plates using a modified broth microdilution protocol following CLSI guidelines. Cation-adjusted Mueller-Hinton Broth (CAMHB) was prepared fresh on the day of testing.[74] […] Bacterial colonies were selected from an overnight culture on MHA plates (supplemented with 0.2%w/vL-arabinose for E. coli TOP10 containing pBAD-TOPO-Tet(X4)) and were suspended in 0.9% saline solution to achieve a 0.5 McFarland standard. A 100 μL aliquot of this suspension was then diluted into 9.9 mL of CAMHB to yield approximately 1.5 × 10^6 cfu mL^−1. 50 μL of the suspension was then added to each well of a microtiter plates. Plates were incubated at 37 °C for 18 h. At least 2 replicates were conducted for each combination. E. coli TOP10 + pBAD-TOPO-Tet(X4) cells were grown in the absence and presence of 0.2%w/vL-arabinose. Analysis of the MIC and checkerboard results were carried out by visual inspection of growth, with and without resazurin dye, an oxidation–reduction indicator.[75] As a measure of synergy, fractional inhibitory concentration index (FICI) was calculated as FICA + FICB, where FICA and FICB are the MICcombination/MICalone for each agent, respectively.[76] Results were interpreted as follows: synergistic (<0.5), indifferent (1.0–4.0) or antagonistic (>4.0).[64] In cases where the MIC exceeded or was below the measured range, the borderline value was taken to calculate the FIC index.

[5] = IC50app, Tet(X4) (Polarization)

Compound | IC50 ([3]; read-out: IC50, UPLC assay) | IC50 [1, 5] | further results
Cc1c2c(c(O)c3c(O)c(Br)ccc13)C(=O)[C@@]1(O)C(=O)C(C(N)=O)=C(O)[C@@H](N(C)C)[C@@H]1C2 [9-Bromo-anhydrotetracycline] | 2.7 ± 0.5 µM |  | IC50 ([1]; read-out: IC50app, FP assay): 0.0404 ± 0.0105 µM; displacement of probe 6 / competitive binding (in words) [1]: clear dose-dependent displacement; IC50 [2]: 4.5 ± 0.6 µM
COc1cc(C)c2c(Oc3cccc(C(F)(F)F)c3)c(OC)cc(NC(C)CCCN)c2n1 (stereo not shown) [Tafenoquine] | 76 ± 2.4 µM | 94.9 ± 64.8 µM | MIC ([4]; read-out: Tet(X) Inhibitor MIC, alone, without L-arabinose induction): 16 µg/mL; MIC ([4]; read-out: Tet(X) inhibitor MIC, alone, induced with 0.2%w/v L-arabinose): 16 to 64 µg/mL; Tet(X) inhibitor MIC ([4]; alone, induced with 0.2%w/v L-arabinose): 16 µg/mL; reduction of the tigecycline MIC ([4]; at high concentrations of inhibitor, 0.2%w/v L-arabinose): 2–4 fold; Combination (antibiotic/inhibitor) MIC: inhibitor ([4]; 0.2%w/v L-arabinose): 4 µg/mL; Combination (antibiotic/inhibitor) MIC: inhibitor ([4]; without L-arabinose): 16 µg/mL; Combination (antibiotic/inhibitor) MIC: antibiotic ([4]; 0.2%w/v L-arabinose): 2 µg/mL; Combination (antibiotic/inhibitor) MIC: antibiotic ([4]; without L-arabinose): 0.25 µg/mL; FICI ([4]; 0.2%w/v L-arabinose): 0.8; Outcome ([4]; 0.2%w/v L-arabinose): Indifferent (indifferent (0.5–4.0)); FICI ([4]; without L-arabinose): 2; Outcome ([4]; without L-arabinose): indifferent (indifferent (0.5-4.0))
c1ccc2c(c1)Nc1ccccc1S2 [Phenothiazine] | 128 ± 13 µM | > 100 µM | 
Cn1cc(C2=C(c3cn(C4CCN(Cc5ccccn5)CC4)c4ccccc34)C(=O)NC2=O)c2ccccc21 [Enzastaurin] | > 100 µM | 27.8 ± 1.5 µM | 
COc1ccc2c(c1)N(C[C@H](C)CN(C)C)c1ccccc1S2 [Levomepromazine] | > 100 µM | > 100 µM | 
COC1=CC(=O)c2ccccc2C1=O [2-Methoxy-1,4-naphthoquinone] | > 100 µM |  | IC50 ([1]; IC50app, FP assay): > 100 µM; displacement of probe 6 / competitive binding (in words) [1]: minimal competitive binding; IC50 [2]: 421 ± 50 µM; inhibition in the absorbance assay (in words) ([2]; AZT up to 1 mM): weak; inhibition in the UPLC assay (in words) ([3]; AZT up to 100 μM): weak
CCN(CC)CCNC(=O)c1c(C)[nH]c(/C=C2\C(=O)Nc3ccc(F)cc32)c1C [Sunitinib] |  | 45.6 ± 4 µM | IC50 ([3]; IC50, UPLC assay): > 100 µM
CC(CN(C)C)CN1c2ccccc2S(=O)(=O)c2ccccc21 (stereo not shown) [Oxomemazine] | > 100 µM | > 100 µM | 
O=C(NCc1c(F)cc(F)cc1F)c1cn2c(c(O)c1=O)C(=O)N1[C@H]3CC[C@H](C3)O[C@@H]1C2 [Bictegravir] | 76 ± 14 µM | 54.8 ± 10.6 µM | 
CCCCC1C(=O)N(c2ccccc2)N(c2ccccc2)C1=O [Phenylbutazone] | > 100 µM | > 100 µM | 
CN(C)CCCN1c2ccccc2Sc2ccccc21 [Promazine] | > 100 µM | > 100 µM | 
O=c1c2ccccc2[se]n1-c1ccccc1 [Ebselen] | 4.7 ± 1.5 µM | 40.9 ± 11.4 µM | 
C=CC(=O)Nc1cccc(Oc2nc(Nc3ccc(N4CCN(C)CC4)cc3)nc3ccsc23)c1 [Olmutinib] | > 100 µM | 17.2 ± 3.4 µM | 
CC(=O)c1ccc2c(c1)N(CCCN1CCN(CCO)CC1)c1ccccc1S2 [Acetophenazine] | > 100 µM | > 100 µM | 
